The target in one series is CDK2 (Mus musculus, UniProt P97377). The series is described as follows: immunoprecipitated CDK2 kinase assay, […]histone H1 substrate; cisplatin-treated cells ([…] from untreated cells). The format is biochemical.
Conditions: not given
`O=C1Cc2c([nH]c3ccc(Br)cc23)-c2ccccc2N1` [kenpaullone] displayed an IC50 of 1.7 ± 0.9 µM.

Tested on in another series: not listed separately
Kind of series: in vitro. Set-up: CellTiter-Glo cell viability, compound alone. As to conditions: mouse, hei-oc1 cells; compound alone; read-out: LD50 (μM) in HEI cells. An excerpt:
For this screen, caspase-3 cleavage was chosen as the endpoint indicating cisplatin-induced cell death, as it allowed the inhibition of cell death to be monitored at the level of any intracellular molecular target upstream of caspase-3 cleavage in the HEI-OC1 cell line ([Kalinec et al., 2003]; [Kim et al., 2010]). […] This screen has been described in detail elsewhere ([Teitz et al., 2016]). Assays were first optimized at the bench. Optimized aspects included the number of cells to be plated (1,600 cells/well), the cisplatin concentration (50 µM, based on the dose–response curve), the incubation time (22 h at 33°C in 10% CO2), and the concentration of pifithrin-α (17 µM). The Caspase-Glo 3/7 assay (Promega), which enables the measurement of light emitted as the result of caspase cleavage and is suitable for HTS, was used. The linearity of the Caspase-Glo 3/7 assay was validated, and it was verified that 0.5% DMSO had no effect on the cell death kinetics ([Hall et al., 2014]). Compound toxicity was tested by cell viability assay CellTiter-Glo (Promega) with compound alone. The Caspase-Glo 3/7 assay was then tested for reproducibility in the St. Jude robotic systems in 384-well plates (white, solid-bottom, tissue culture–treated, polystyrene plates; Corning). By using a pin tool, test compounds dissolved in DMSO were added to the screen to a final concentration of 8 µM, and cisplatin solution in PBS was added 2 min later to each well to a final concentration of 50 µM (in <0.5% DMSO; Fig. S1 A). The cells were incubated with the test compounds and cisplatin for 22 h at 33°C in 10% CO2, with the medium being as previously described ([Kalinec et al., 2003]); no γ IFN was added to slow the cells’ growth rate and to mimic as closely as possible the conditions of postmitotic, nondividing sensory epithelial (organ of Corti) cells. The 384-well plates were shaken and centrifuged after compound addition to enhance the reprod  Figure 1. […] (A) Screening of a bioactive compound library of 4,385 unique compounds, including 845 FDA-approved drugs, in HEI-OC1 cells. Cells treated with 50 µM cisplatin (red dots) were assigned 100% caspase-3/7 activity. Cells not treated with cisplatin, i.e., those grown in medium only (black dots) were assigned 0% caspase-3/7 activity. Each compound was added to a final concentration of 8 µM in the presence of 50 µM cisplatin (cyan dots). The cell-based screen mean Z′ was 0.75, the signal window was 12, and the signal fold change was 4.9. […] The caspase-3/7 IC50 activity and structure are indicated for each compound. Error bars: SEM. […] Phalloidin labels the HCs. (I–K) OHC survival (percentage; mean ± SEM) after treatment with various concentrations of compounds and/or cisplatin (CIS). The number of cochlear explants analyzed is indicated in each bar. *, P < 0.05 and **, P < 0.01 by one-way ANOVA followed by a Bonferroni comparison. We identified 177 hits that reduced cisplatin-induced caspase-3/7 activity by 60% or more. These compounds were further validated and characterized by dose-responsive analysis for potency and toxicity in HEI-OC1 cells; toxicity was assessed by a cell viability assay (CellTiter-Glo) with the test compounds alone (Fig. 1, B–D; and Fig. S1, E–K). The top 10 hits in this screen (with IC50 values in the HEI-OC1 cells of 0.04–6.2 µM) and their protective properties, as investigated in this study, are summarized in Table S1. The FDA has approved three of the compounds (leflunomide, [compound left out], and olsalazine sodium) for treating other medical conditions.
As to `O=C1Cc2c([nH]c3ccc(Br)cc23)-c2ccccc2N1` [kenpaullone], the CC50 at 22 h was > 40 µM.
On the same count and under the same terms, under `CCCCCC[C@H]1C(=O)O[C@H](C)[C@H](NC(=O)c2cccc(NC=O)c2O)C(=O)O[C@@H](C)[C@@H]1OC(=O)CC(C)C` [Antimycin A] stands > 10 µM; under `O=C(O)c1cc(/N=N/c2ccc(O)c(C(=O)O)c2)ccc1O` [Olsalazine sodium], > 40 µM.
In the case of `CCOc1cc2ncc(C#N)c(Nc3ccc(F)c(Cl)c3)c2cc1NC(=O)/C=C/CN(C)C` [Pelitinib], the CC50 at 22 h was > 40 µM.
Same read-out and setting: in the case of `O=c1cc(CN2CCOCC2)occ1OCCCCCSc1ccnc2cc(C(F)(F)F)ccc12` [EHT1864] it was > 20 µM.
Same read-out and setting: under `NS(=O)(=O)c1ccc(N=Nc2c(O)[nH]c3ccc(Br)cc23)cc1` [CDK2 inhibitor II] stands > 40 µM; under `CC[C@H](CO)Nc1nc(NCc2ccccc2O)c2ncn(C(C)C)c2n1` [Olomoucine II], > 40 µM.
On the same count and under the same terms, in the case of `Cc1oncc1C(=O)Nc1ccc(C(F)(F)F)cc1` [Leflunomide] it was > 40 µM.

Values taken from article PMC5881471, “CDK2 inhibitors as candidate therapeutics for cisplatin- and noise-induced hearing loss” (The Journal of Experimental Medicine, 2018).
